Here are results for 84 compounds from PubChem BioAssay AID1645863 (Buhrlage Lab, Dana-Farber Cancer Institute and Novartis …, 2021).

Calls of active or inactive are those of the source. No rule for the calls is given here. Bounds are passed on as bounds.

Ubiquitin carboxyl-terminal hydrolase 10 (Homo sapiens), sequence (Q14694 whole entry, looked up): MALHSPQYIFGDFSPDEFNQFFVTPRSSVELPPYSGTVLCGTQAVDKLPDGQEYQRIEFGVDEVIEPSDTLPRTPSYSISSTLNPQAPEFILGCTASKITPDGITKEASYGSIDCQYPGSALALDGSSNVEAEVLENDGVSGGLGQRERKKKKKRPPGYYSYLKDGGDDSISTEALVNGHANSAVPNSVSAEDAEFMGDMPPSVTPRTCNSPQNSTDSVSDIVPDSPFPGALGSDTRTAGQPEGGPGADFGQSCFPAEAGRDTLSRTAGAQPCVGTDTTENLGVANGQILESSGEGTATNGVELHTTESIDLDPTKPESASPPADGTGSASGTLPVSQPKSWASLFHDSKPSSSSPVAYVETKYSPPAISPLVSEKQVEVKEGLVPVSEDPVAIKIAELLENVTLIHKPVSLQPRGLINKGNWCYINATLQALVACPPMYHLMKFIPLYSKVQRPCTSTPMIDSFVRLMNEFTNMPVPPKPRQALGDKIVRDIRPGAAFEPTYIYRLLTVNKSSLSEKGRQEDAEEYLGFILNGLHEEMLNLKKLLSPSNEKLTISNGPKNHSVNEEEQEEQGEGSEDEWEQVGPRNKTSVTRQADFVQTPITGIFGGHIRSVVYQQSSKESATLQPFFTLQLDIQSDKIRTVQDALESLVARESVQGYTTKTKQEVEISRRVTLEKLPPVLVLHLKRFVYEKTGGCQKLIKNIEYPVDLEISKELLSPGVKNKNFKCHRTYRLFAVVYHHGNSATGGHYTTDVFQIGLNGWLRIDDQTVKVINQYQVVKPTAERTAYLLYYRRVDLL

The test concerns the target Ubiquitin carboxyl-terminal hydrolase 10 (Homo sapiens) (UniProt Q14694). As to the kind of experiment: ubiquitin-specific protease 10 DUB inhibitors, concentration-effect, biochemical, verification of primary screen actives (AID 1645863).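 Also: potency values describe inhibition of USP10 cleavage of a fluorogenic ubiquitin substrate.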 As to conditions: USP10 deubiquitinase enzymatic assay.
The term IC50 denotes the midpoint of a concentration-inhibition curve. `Cc1cc(N2CCN(c3ncccn3)CC2)nc2ccc(NC(=O)Cn3nc([N+](=O)[O-])c(Br)c3C)cc12`: the IC50 was > 40 µM (inactive).

Consider `O=C(c1cscn1)N1CCC2(CC1)CC1(CO2)Nc2ccccc2-n2cccc21` (centres undefined), for which the IC50 is > 40 µM (inactive).

Take `CCCCCCCCCc1cc(OC(=O)c2c(CCCCCCCCC)cc(O)cc2O[C@@H]2O[C@H](CO)[C@@H](O)[C@H](O)[C@H]2O)cc(O)c1C(=O)O`: the IC50 was 3.43 µM.

On to `CCc1ccc(NC(=O)CSc2nc3nccnc3c(=O)n2Cc2ccc(F)cc2)cc1`, for which the IC50 is > 40 µM (inactive).

For `O=C(CCCc1nnc2c(=O)n(-c3cccc(F)c3)ccn12)NCc1ccc(F)cc1`, the concentration for half-maximal inhibition (IC50) was 35.3 µM.

With `O=C(NC1(O)C(=O)c2ccccc2C1=O)c1cccc2c1-c1ccccc1C2=O`, the IC50 was 10.3 µM.

For `COc1ccc(-c2onc(C)c2C)cc1S(=O)(=O)NCc1ccc(F)cc1`, the IC50 is > 40 µM (inactive).

Consider `CCCc1nnc(NC(=O)c2cc(-c3ccccc3O)n[nH]2)s1`, for which the IC50 was > 40 µM (inactive).

Regarding `Cc1ccc(Nc2nc3c(S(=O)(=O)c4ccccc4)nnn3c3ccccc23)c(C)c1`, the IC50 is > 40 µM (inactive).

In the case of `Cc1cc(C(=O)N2CCOCC2)c(C)n1-c1ccc(O)cc1`, the IC50 was > 40 µM (inactive).

Consider `O=C(OC1CSc2nc3ccccc3n2C1)c1ccc([N+](=O)[O-])o1` (centres undefined), for which the IC50 is 22.7 µM.

As to `O=C1CC(O)C(O)c2cccc(O)c21` (centres undefined), the IC50 is > 40 µM (inactive).

In the case of `COc1ccccc1N1CCN(C(=O)c2ccc3c(=O)n(CCc4ccccc4)c(=O)[nH]c3c2)CC1`, the IC50 was > 40 µM (inactive).

For the compound `CN(C)c1ccc(CNC(=O)c2nnc(C(=O)Nc3ccccc3)s2)cc1`, the IC50 was > 40 µM (inactive).

Regarding `Cc1cccc(NC(=O)CSc2nnc(-c3n[nH]c4c3CCC4)n2N)c1C`, the IC50 is > 40 µM (inactive).

On to `Cc1occ2c1C(=O)c1c(O)ccc(O)c1C2`, for which the IC50 was 4.8 µM.

Consider `Cc1ccc(Nc2nc(O)c(CC(=O)Nc3ccc(C)cc3C)s2)cc1`, for which the IC50 was 14.6 µM.

In the case of `COc1ccc(OC)c(NC2=NS(=O)(=O)C(c3cccc(Br)c3)=C2C)c1`, the IC50 was > 40 µM (inactive).

On to `O=C(Cn1c(=O)c2ccccc2c2ccccc21)Nc1ccc2c(c1)OCO2`, for which the IC50 is 34.9 µM.

In the case of `COC(=O)c1ccccc1NC(=O)Cn1c(=O)n(CCCC(=O)NCc2ccco2)c(=O)c2ccccc21`, the IC50 is 13 µM.

For `COc1ccc(NC(=O)CC(=O)c2ccc([N+](=O)[O-])cc2)cc1S(=O)(=O)Nc1ccc(Br)cc1`, the IC50 was 22.9 µM.

For `Cc1noc(C)c1COc1cccc(C(=O)Nc2cc(Cl)ccc2-n2cncn2)c1`, the IC50 was > 40 µM (inactive).

For the compound `Cc1cc(Nc2ccc(C(=O)NCc3ccco3)cc2)n2nc(-c3cccnc3)nc2n1`, the IC50 was > 40 µM (inactive).

In the case of `Cn1c(=O)c(-c2ccc(C(=O)NCc3cccc(Cl)c3)cc2)nc2cccnc21`, the IC50 was > 40 µM (inactive).

As for `O=C(/C=C/c1ccc(F)cc1)N1CCc2ccccc2C1`, the IC50 is > 40 µM (inactive).

Take `O=c1[nH]c2ccc(S(=O)(=O)Nc3ccc(O)c4ccccc34)cc2[nH]1`: the concentration for half-maximal inhibition (IC50) was 39 µM.

In the case of `O=C(Cn1c(=O)n(CCC(=O)NC2CCCC2)c(=O)c2ccccc21)NCc1ccccc1Cl`, the IC50 is > 40 µM (inactive).

`COc1ccc(CCC(=O)Nc2nnc(C3CC(=O)N(c4ccc(C)cc4)C3)s2)cc1` (centres undefined): the IC50 is 13.6 µM.

Regarding `O=C(Cn1c(=O)c2ccccc2n(CC(=O)Nc2cccc(F)c2)c1=O)NCCc1ccccc1`, the IC50 was 27.4 µM.

As to `Cc1cccc(Cl)c1NC(=O)Nc1ccc(NC(=O)c2ccccc2O)cc1`, the half-maximal inhibitory concentration (IC50) was 13.2 µM.

On to `O=C(Cn1c(=O)n(-c2ccc(Cl)cc2)c(=O)c2c3c(sc21)CCCC3)NCC1CCCO1` (centres undefined), for which the IC50 is > 40 µM (inactive).

Take `Cc1nnc2ccc(-c3ccc(NC(=O)c4ccc(Br)o4)cc3)nn12`: the IC50 was > 40 µM (inactive).

`O=C(CCn1c(=O)c2ccccc2n(Cc2ccc(F)cc2Cl)c1=O)NCc1ccco1`: the IC50 is 27.6 µM.

Consider `CO/C=C/C(=O)c1cc2cnc3c(=N)cc(NC(C)=O)c([nH]1)c23`, for which the IC50 result is “inactive”.

In the case of `O=C1CC(c2cc3c(cc2Br)OCO3)c2cc3c(cc2N1)OCCO3` (centres undefined), the IC50 is > 40 µM (inactive).

For `CCCCCCCCCCCC1=C(O)C(=O)C=C(O)C1=O`, the IC50 was 2.44 µM.

With `C=C/C(C)=C/[C@@]1(C)SC(=O)C(C)=C1O`, the IC50 is 10.4 µM.

Take `O=C(CCCCn1c(=O)[nH]c2ccccc2c1=O)Nc1cccc(Cl)c1`: the IC50 is > 40 µM (inactive).

With `O=C(Nc1ccc(Cn2cnc(-c3nc(-c4ccccc4)no3)c2)cc1)c1ccccc1F`, the IC50 was > 40 µM (inactive).

As for `COc1ccc(C(=O)COC(=O)c2ccccc2NS(=O)(=O)c2ccc(O)c([N+](=O)[O-])c2)cc1`, the IC50 was 9.78 µM.

Take `Cc1cccc(NC(=O)Nc2nnc(CC(=O)NCc3ccccc3)s2)c1`: the IC50 was 17.4 µM.

As to `CC(=O)Nc1ccc(NC(=O)c2ccc3c(c2)CC(c2ccccc2)OC3=O)cc1` (centres undefined), the IC50 was 14.6 µM.

In the case of `COc1cccc2c1NC(=O)C21CCN(C(=O)Nc2cccc3ccccc23)CC1`, the IC50 was > 40 µM (inactive).

Regarding `CCOC(=O)c1ccc(NC(=O)Cn2c(=O)n(-c3ccc(CC(=O)NCc4ccco4)cc3)c(=O)c3ccccc32)cc1`, the IC50 is > 40 µM (inactive).

Consider `COCCCn1c(C(=O)NCc2ccccc2)cc2c(=O)n3ccccc3nc21`, for which the IC50 was > 40 µM (inactive).

As to `Cc1ccc(CNCc2cc3c(-c4ccc(F)cc4)nn(-c4ccccc4)c3[nH]c2=O)cc1`, the IC50 is > 40 µM (inactive).

In the case of `N#C/C(=C\c1ccc(OCc2cccc(C(=O)O)c2)cc1)c1ccc(F)cc1`, the concentration for half-maximal inhibition (IC50) is 20.2 µM.

Regarding `O=C(Cn1c(=O)[nH]c2ccccc2c1=O)NCc1ccccc1Cl`, the IC50 was > 40 µM (inactive).

Consider `COc1cc(NS(=O)(=O)c2ccc(NC(=O)COc3ccc(C)cc3Br)cc2)nc(OC)n1`, for which the IC50 was 38.6 µM.

`O=C(c1cccnc1)N1CCCC(Cc2cc(-c3ncc[nH]3)ncn2)C1` (centres undefined): the IC50 is > 40 µM (inactive).

As to `COc1cc2c(=O)n(Cc3ccccc3)c(=O)n(CC(=O)N3CCCc4ccccc43)c2cc1OC`, the IC50 was 12.7 µM.

Turning to `CCCn1c(=O)c(-c2ccc(C(=O)NCc3ccc(OC)cc3)cc2)nc2cccnc21`, the IC50 is > 40 µM (inactive).

As to `CC(Nc1nnc(Cc2ccccc2)c(=O)[nH]1)c1ccccc1` (centres undefined), the IC50 is > 40 µM (inactive).

Take `COC(=O)c1cc2c(ccn2-c2ccc(F)cc2)n1CC(=O)NC1CCCCC1`: the IC50 is > 40 µM (inactive).

For the compound `Cc1cccc(NC(=O)CSc2nc3c(cc2C#N)C(=O)CCC3)c1`, the IC50 was 26.4 µM.

Take `CCCCNC(=O)C1Sc2nnc(-c3ccccc3)n2NC1c1ccccc1` (centres undefined): the IC50 was > 40 µM (inactive).

With `Cc1ccc2c(CNCCC3=CCCCC3)c(C(=O)O)n(C)c2c1`, the IC50 was > 40 µM (inactive).

As for `O=C(c1ccc(Cl)cc1)N(c1ccccn1)C1CCCCC1`, the IC50 was > 40 µM (inactive).

On to `O=C(Nc1ccc2snnc2c1)Nc1ccc(F)cc1F`, for which the IC50 was > 40 µM (inactive).

Turning to `COc1ccc(Cl)cc1NC(=O)c1nc(-c2cn(-c3ccccc3)nn2)no1`, the IC50 is 14.1 µM.

Consider `COc1ccc(NC2c3ccccc3C(=O)N2c2ccccn2)cc1` (centres undefined), for which the IC50 is > 40 µM (inactive).

With `COc1ccc(CC(=O)Nc2c(NCc3ccccc3)c3ccccc3oc2=O)cc1`, the IC50 is 38.4 µM.

For `O=C(Nc1cc(F)c2nc(N3CCCC3)ccc2c1)c1ccco1`, the IC50 was > 40 µM (inactive).

For the compound `Cc1ccc2cc(-c3noc(CCC(=O)NC4CCCC4)n3)c(=O)[nH]c2c1`, the IC50 was > 40 µM (inactive).

Consider `Cc1c(C)n(-c2ccccc2)c2ncn(CC(=O)NCc3cccc(F)c3)c(=O)c12`, for which the IC50 was > 40 µM (inactive).

On to `Cc1ccc(NC(=O)Nc2nnc(CC(=O)NCc3ccccc3)s2)cc1F`, for which the IC50 is > 40 µM (inactive).

Turning to `COCCCN1CCS(=O)(=O)c2c(Cl)c(F)nc(Oc3ccc(C#N)cc3)c21`, the IC50 is > 40 µM (inactive).

In the case of `O=C(CCCn1c(=O)c2cc(Cl)ccc2n(CC(=O)Nc2cccc(F)c2)c1=O)NCc1ccco1`, the IC50 is > 40 µM (inactive).

For `COc1ccc(NC(=O)Cn2cc(C(=O)c3ccccc3)c(=O)c3cc(Cl)ccc32)cc1OC`, the half-inhibitory concentration (IC50) was 22.8 µM.

As for `CC(C)(C)c1ccc(C2CC(=O)C3=C(C2)Nc2ccccc2N(C(=O)CCC(=O)O)C3c2cccc([N+](=O)[O-])c2)cc1` (centres undefined), the IC50 was > 40 µM (inactive).

Consider `COc1ccc(NC(=O)c2nnc(C(=O)NCCN3CCCCCC3)s2)cc1`, for which the IC50 is > 40 µM (inactive).

In the case of `COc1ccc(NS(=O)(=O)c2cc(NC(=O)CC(=O)c3ccc([N+](=O)[O-])cc3)ccc2C)cc1`, the IC50 is > 40 µM (inactive).

In the case of `O=C(Nc1nc2c(ccc3ccccc32)s1)c1cccc(Br)c1`, the IC50 is > 40 µM (inactive).

For `CCOc1ccc2c(c1)c(=O)c(C(=O)c1ccc(F)cc1)cn2CC(=O)Nc1ccccc1`, the IC50 is > 40 µM (inactive).

With `O=C(NC1CCCC1)c1ccc(Cn2c(=O)c3ccccc3n(Cc3cc(=O)n4ccccc4n3)c2=O)cc1`, the IC50 was > 40 µM (inactive).

For the compound `COC(=O)c1ccc2c(=O)n(CCCCCC(=O)NCCc3ccc(S(N)(=O)=O)cc3)c(=O)[nH]c2c1`, the IC50 is 24.7 µM.

As for `O=C(/C=C/c1ccco1)N1CCC(Cn2cccn2)CC1`, the IC50 is > 40 µM (inactive).

`C[C@@H]1CO[C@@H]2C3=C(C(=O)C=CC3=O)[C@H]3OC(=O)[C@@H]4CCC5[C@@H]1CCC52C34` (some centres undefined): the IC50 is 18.5 µM.

As to `CCCc1cc(=O)n2[nH]c(COc3ccccc3)c(-c3ccccc3)c2n1`, the IC50 is 14 µM.

Take `CS(=O)(=O)NC1CCCN(C(=O)Nc2cccc3ccccc23)C1` (centres undefined): the IC50 is > 40 µM (inactive).

Regarding `CCOc1ccc(NC(=O)Cn2c(=O)n(CCC(=O)NCc3ccco3)c(=O)c3ccccc32)cc1`, the IC50 was 24.4 µM.

Consider `Cc1ccnc(Nc2nc(-c3ccccc3)c3cc(Cl)ccc3n2)n1`, for which the IC50 was 14.7 µM.

For `O=C(CCSc1ccc(Cl)cc1)c1cccs1`, the IC50 is > 40 µM (inactive).

Take `O=C(NCc1ccc2c(c1)OCO2)c1cn(-c2cccc(Cl)c2)nn1`: the half-maximal inhibitory concentration (IC50) is 33 µM.
